In ChEMBL document CHEMBL4680145, “Expansion of chemical space based on a pyrrolo[1,2-a]pyrazine core: Synthesis and its anticancer activity in prostate cancer and breast cancer cells” (Eur J Med Chem, 2020):
Activity calls are given as the source filed them. The calls are words filed in the database; no cut-off is given here.

Tests used:
PC-3 [1] = experiment: Cytotoxicity against human PC-3 cells assessed as cell viability at 30 uM incubated for 48 hrs by MTS assay relative to control; format: functional; conditions: read-out: Activity
MCF7 [2] = experiment: Cytotoxicity against human MCF7 cells assessed as cell viability at 30 uM incubated for 48 hrs by MTS assay relative to control; format: functional; conditions: read-out: Activity
PC-3 [3] = experiment: Cytotoxicity against human PC-3 cells assessed as reduction in cell viability incubated for 48 hrs by MTS assay; format: functional, cell-based; conditions: PC-3, 48 h
MCF7 [4] = experiment: Cytotoxicity against human MCF7 cells assessed as reduction cell viability incubated for 48 hrs by MTS assay; format: functional, cell-based; conditions: MCF7, 48 h
PC-3 [5] = experiment: Antimigratory activity against human PC-3 cells assessed as reduction in cell migration measured every 2 hrs for 24 hrs by wound healing assay; format: functional, cell-based; conditions: dose 1-10 µM
MCF7 [6] = experiment: Antimigratory activity against human MCF7 cells assessed as reduction in cell migration measured every 2 hrs for 24 hrs by wound healing assay; format: functional, cell-based; conditions: dose 1-10 µM
PC-3 [7] = experiment: Induction of apoptosis in human PC-3 cells assessed as increase in caspase-3 activity incubated for 24 hrs by caspase-3 substrate and Hoechst 33342 dye based fluorescence assay; format: functional, cell-based; conditions: dose 1-10 µM
MCF7 [8] = experiment: Induction of apoptosis in human MCF7 cells assessed as increase in caspase-3 activity incubated for 24 hrs by caspase-3 substrate and Hoechst 33342 dye based fluorescence assay; format: functional, cell-based; conditions: dose 1-10 µM
PC-3 [9] = experiment: Induction of apoptosis in human PC-3 cells assessed as increase in caspase-3 activity at 10 uM incubated for 24 hrs in presence of Ac-DEVD-CHO by Hoechst 33342 dye based fluorescence assay; format: functional, cell-based
MCF7 [10] = experiment: Induction of apoptosis in human MCF7 cells assessed as increase in caspase-3 activity at 10 uM incubated for 24 hrs in presence of Ac-DEVD-CHO by Hoechst 33342 dye based fluorescence assay; format: functional, cell-based
PC-3 [11] = experiment: Induction of apoptosis in human PC-3 cells assessed as increase in caspase-3 activity at 10 uM incubated for 24 hrs by Hoechst 33342 staining based fluorescence microscopy; format: functional, cell-based
MCF7 [12] = experiment: Induction of apoptosis in human MCF7 cells assessed as increase in caspase-3 activity at 10 uM incubated for 24 hrs by Hoechst 33342 staining based fluorescence microscopy; format: functional, cell-based
PC-3 [13] = experiment: Induction of apoptosis in human PC-3 cells assessed as increase in cleaved PARP incubated for 24 hrs by Western blot analysis; format: functional, cell-based; conditions: dose 3-30 µM
MCF7 [14] = experiment: Induction of apoptosis in human MCF7 cells assessed as increase in cleaved PARP incubated for 24 hrs by Western blot analysis; format: functional, cell-based

| SMILES | viability at 30 µM (PC-3 [1]) | viability at 30 µM (MCF7 [2]) | further results |
| --- | --- | --- | --- |
| O=C(c1ccc(Br)cc1)c1c(-c2ccccc2)ncc2cccn12 | 5.8% | 37% | IC50 (PC-3 [3]): 7.17 µM |
| COc1ccc([C@H]2N=Cc3cccn3[C@@H]2C(=O)c2cccc(OC)c2)cc1 (relative stereo) | 83.8% | 77.9% |  |
| O=C(c1ccccc1)[C@@H]1[C@@H](c2ccc(Br)cc2)N=Cc2cccn21 (relative stereo) | 83.3% | 99.9% |  |
| COc1ccc([C@H]2N=Cc3cccn3[C@@H]2C(=O)c2ccc(Br)cc2)cc1 (relative stereo) | 28.6% | 39.8% | IC50 (PC-3 [3]): 20.6 µM |
| COc1cccc(C(=O)[C@@H]2[C@@H](c3ccncc3)N=Cc3cccn32)c1 (relative stereo) | 91.4% | 95.5% |  |
| O=C(c1ccc(Br)cc1)[C@@H]1[C@@H](c2ccccc2)N=Cc2cccn21 (relative stereo) | 68.5% | 66.9% |  |
| O=C(c1ccccc1)[C@@H]1[C@@H](c2ccc(Cl)cc2)N=Cc2cccn21 (relative stereo) | 84.8% | 102% |  |
| COc1ccc([C@@H]2[C@@H](C(=O)c3ccc(Br)cc3)n3cccc3C=[N+]2CC(=O)c2ccccc2)cc1 (relative stereo) | 6.3% | 6.4% | IC50 (PC-3 [3]): 2.19 µM; IC50 (MCF7 [4]): 2.45 µM; inhibition (PC-3 [5]): Dose-dependent effect; inhibition (MCF7 [6]): Dose-dependent effect |
| O=C(c1ccc(F)cc1)[C@@H]1[C@@H](c2ccncc2)N=Cc2cccn21 (relative stereo) | 100% | 78.5% |  |
| O=C(c1ccc(Br)cc1)[C@@H]1[C@@H](c2ccccn2)N=Cc2cccn21 (relative stereo) | 73.2% | 67.5% |  |
| COc1ccc(C(=O)[C@@H]2[C@@H](c3ccco3)N=Cc3cccn32)cc1 (relative stereo) | 55.7% | 99.9% |  |
| COc1ccc(C(=O)C[N+]2=Cc3cccn3[C@H](C(=O)c3ccc(Br)cc3)[C@H]2c2ccccc2)cc1 (relative stereo) | 56% | 54.5% |  |
| O=C(c1ccc(Br)cc1)[C@@H]1[C@@H](c2ccccc2)[N+](Cc2ccccc2)=Cc2cccn21 (relative stereo) | 97.9% | 98.1% |  |
| O=C(C[N+]1=Cc2cccn2[C@H](C(=O)c2ccc(Br)cc2)[C@H]1c1ccccc1)c1ccc(F)cc1 (relative stereo) | 10.7% | 33.8% |  |
| O=C(c1ccc(Cl)cc1)[C@@H]1[C@@H](c2ccc[nH]2)N=Cc2cccn21 (relative stereo) | 102% | 102% |  |
| Cc1ccc([C@H]2N=Cc3cccn3[C@@H]2C(=O)c2ccc(F)cc2)cc1 (relative stereo) | 99.8% | 111% |  |
| O=C(c1ccc(F)cc1)[C@@H]1[C@@H](c2ccc(Br)cc2)N=Cc2cccn21 (relative stereo) | 18.5% | 31.1% | IC50 (PC-3 [3]): 16.4 µM |
| O=C(c1ccccc1)[C@@H]1[C@@H](c2ccc([N+](=O)[O-])cc2)N=Cc2cccn21 (relative stereo) | 86.9% | 85.1% |  |
| COc1cc(OC)cc([C@H]2N=Cc3cccn3[C@@H]2C(=O)c2ccccc2)c1 (relative stereo) | 106% | 102% |  |
| C[N+]1=Cc2cccn2[C@H](C(=O)c2ccc(Br)cc2)[C@H]1c1ccccc1 (relative stereo) | 97.9% | 98.1% |  |
| O=C(c1ccc(Cl)cc1)[C@@H]1[C@@H](c2ccccc2)N=Cc2cccn21 (relative stereo) | 99.9% | 99.3% |  |
| COc1ccc(C(=O)[C@@H]2[C@@H](c3ccc(C)cc3)N=Cc3cccn32)cc1 (relative stereo) | 81.3% | 77.4% |  |

| SMILES | viability at 30 µM (PC-3 [1]) | viability at 30 µM (MCF7 [2]) | further results |
| --- | --- | --- | --- |
| O=C(c1ccc(F)cc1)[C@@H]1[C@@H](c2ccco2)N=Cc2cccn21 (relative stereo) | 99.4% | 70% |  |
| O=C(c1ccccc1)[C@@H]1[C@@H](c2ccco2)N=Cc2cccn21 (relative stereo) | 59% | 95.3% |  |
| COc1ccccc1[C@H]1N=Cc2cccn2[C@@H]1C(=O)c1ccccc1 (relative stereo) | 95.5% | 107% |  |
| O=C(c1ccc(Br)cc1)[C@@H]1[C@@H](c2ccco2)N=Cc2cccn21 (relative stereo) | 99.2% | 96.5% |  |
| COc1ccccc1[C@H]1N=Cc2cccn2[C@@H]1C(=O)c1ccc(Cl)cc1 (relative stereo) | 99.5% | 96.5% |  |
| Cc1ccc([C@H]2N=Cc3cccn3[C@@H]2C(=O)c2ccc(Cl)cc2)cc1 (relative stereo) | 104% | 100% |  |
| COc1ccc([C@H]2N=Cc3cccn3[C@@H]2C(=O)c2ccc(F)cc2)cc1OC (relative stereo) | 96.7% | 72.8% |  |
| O=C(c1ccccc1)[C@@H]1[C@@H](c2cc3ccccc3[nH]2)N=Cc2cccn21 (relative stereo) | 92.1% | 106% |  |
| COc1ccc(C(=O)[C@@H]2[C@@H](c3ccc(OC)c(OC)c3)N=Cc3cccn32)cc1 (relative stereo) | 102% | 98% |  |
| COc1ccc(C(=O)[C@@H]2[C@@H](c3ccc(Br)cc3)N=Cc3cccn32)cc1 (relative stereo) | 96.4% | 100% |  |
| O=C(c1ccc(F)cc1)[C@@H]1[C@@H](c2ccccc2)N=Cc2cccn21 (relative stereo) | 76% | 70.3% |  |
| Cc1ccc([C@H]2N=Cc3cccn3[C@@H]2C(=O)c2ccccc2)cc1 (relative stereo) | 108% | 108% |  |
| O=C(C[N+]1=Cc2cccn2[C@H](C(=O)c2ccc(Br)cc2)[C@H]1c1ccccc1)c1ccc(Cl)cc1 (relative stereo) | 80.8% | 82.5% |  |
| COc1cccc(C(=O)[C@@H]2[C@@H](c3ccccc3)N=Cc3cccn32)c1 (relative stereo) | 104% | 104% |  |
| O=C(C[N+]1=Cc2cccn2[C@H](C(=O)c2ccc(F)cc2)[C@H]1c1ccc(Br)cc1)c1ccccc1 (relative stereo) | 3.4% | 3.6% | IC50 (PC-3 [3]): 1.18 µM; IC50 (MCF7 [4]): 1.95 µM; inhibition (PC-3 [5]): Dose-dependent effect; inhibition (MCF7 [6]): Dose-dependent effect; Activity (PC-3 [7]): Dose-dependent effect; Activity (MCF7 [8]): Dose-dependent effect; Activity (PC-3 [9]): inactive; Activity (MCF7 [10]): inactive; Activity (PC-3 [11]): Active; Activity (MCF7 [12]): Active; Activity (PC-3 [13]): Dose-dependent effect; Activity (MCF7 [14]): Dose-dependent effect |
| COc1ccccc1[C@H]1N=Cc2cccn2[C@@H]1C(=O)c1ccc(F)cc1 (relative stereo) | 86.4% | 69.3% |  |
| O=C(C[N+]1=Cc2cccn2[C@H](C(=O)c2ccc(Br)cc2)[C@H]1c1ccccc1)c1ccccc1 (relative stereo) | 9.1% | 25.5% | IC50 (PC-3 [3]): 3.45 µM; IC50 (MCF7 [4]): 3.65 µM; inhibition (PC-3 [5]): Dose-dependent effect; inhibition (MCF7 [6]): Dose-dependent effect; Activity (PC-3 [7]): Dose-dependent effect; Activity (MCF7 [8]): Dose-dependent effect; Activity (PC-3 [9]): inactive; Activity (MCF7 [10]): inactive; Activity (PC-3 [11]): Active; Activity (MCF7 [12]): Active; Activity (PC-3 [13]): Dose-dependent effect; Activity (MCF7 [14]): Dose-dependent effect |
| O=C(c1ccccc1)[C@@H]1[C@@H](c2ccccc2)N=Cc2cccn21 (relative stereo) | 106% | 104% |  |
| CCOC(=O)C[N+]1=Cc2cccn2[C@H](C(=O)c2ccc(Br)cc2)[C@H]1c1ccccc1 (relative stereo) | 10.7% | 24% | IC50 (PC-3 [3]): 8.74 µM |
| Cc1ccc([C@H]2N=Cc3cccn3[C@@H]2C(=O)c2ccc(Br)cc2)cc1 (relative stereo) | 99% | 99.9% |  |
| COc1cccc(C(=O)[C@@H]2[C@@H](c3ccc(Cl)cc3)N=Cc3cccn32)c1 (relative stereo) | 99.6% | 118% |  |
